Results taken from patent publication US20260022246A1, “COLORING AGENT COMPOSITION, FILM, OPTICAL FILTER, AND NEAR INFRARED ABSORBING COMPOUND” (FUJIFILM Corporation, priority 2023, published 2026).

Columns and labels:
Assay type in all cases: physicochemical
[1] = Evaluation of absorption spectrum (maximal absorption wavelength in chloroform solution); settings: for λmax (maximal absorption wavelength): chloroform solution, 3.0×10^−5 mol/L, 1 mm quartz cell; for Near infrared absorbing property: grade of λmax in chloroform solution
Experimental: The specific compound is diluted with chloroform to a concentration of […], and an absorbance of the obtained sample solution is measured with a spectrophotometer (UV-3600 Plus, manufactured by Shimadzu Corporation) using a 1 mm quartz cell. A maximal absorption wavelength (Amax) is measured from an absorption spectrum of the sample solution.
For each of Exemplary Compounds shown in Tables 1 and 2, a sample solution was prepared by diluting the compound with chloroform to a concentration of 3.0×10^−5 mol/L, and near infrared absorbability was evaluated.
For each sample solution, an absorbance was measured in a 1 mm quartz cell using a spectrophotometer (UV-3600 Plus, manufactured by Shimadzu Corporation).
A maximal absorption wavelength (Amax) was measured from the absorption spectrum of each sample solution. The results are shown in Tables 1 and 2, and the wavelength of Amax was evaluated according to the following standard.
• A: Amax was 1,150 nm or more. • B: Amax was less than 1,150 nm.

[2] = Evaluation of solubility in methyl ethyl ketone (MEK); settings: for Solubility in solvent: stirred at room temperature for 30 minutes
Experimental: For each of Exemplary Compounds shown in Tables 1 and 2, a predetermined amount of the compound was added to a solvent of methyl ethyl ketone (MEK), and solubility was evaluated according to the following standard by stirring the mixture at room temperature for 30 minutes.
• A: 1 g or more of the compound was stably dissolved in 300 g of MEK. • B: 1 g was not dissolved in 300 g of MEK. • X: decomposition was observed by measuring the absorption spectrum after the dissolution.

[3] = Evaluation of heat stability of polystyrene resin film (hot plate 180° C., 5 minutes); set-up: key to Heat stability of resin composition: absorbance reduction rate of Amax was less than 5%; B: absorbance reduction rate of Amax was 5% or more and less than 10%; C: absorbance reduction rate of Amax was 10% or more and less than 50%; D: absorbance reduction rate of Amax was 50% or more; X: solubility was insufficient, so that the film cannot be produced, which was not evaluable; settings: polystyrene resin film on glass, hot plate 180° C. for 5 minutes, absorbance reduction rate at λmax
Experimental: 30 mg of each of Exemplary Compounds and the comparative compounds described in the tables was dissolved in 8.9 g of methyl ethyl ketone and 1.1 g of a polystyrene resin (manufactured by Sigma-Aldrich Co. LLC) to prepare a resin composition.
The obtained resin composition was spin-coated on a glass substrate to form a coating film, and the obtained coating film was dried at 60° C. for 2 minutes to produce a resin film. […]
• A: absorbance reduction rate of Amax was less than 5%. • B: absorbance reduction rate of Amax was 5% or more and less than 10%. • C: absorbance reduction rate of Amax was 10% or more and less than 50%. • D: absorbance reduction rate of Amax was 50% or more. • X: solubility was insufficient, so that the film cannot be produced, which was not evaluable.

Compound | λmax (maximal absorption wavelength) [1] | Near infrared absorbing property [1] | Solubility in solvent [2] | Heat stability of resin composition [3] | solubility in a solvent (in words) [2]
COc1cc(C)c(N(c2ccc([N+](=C3C=CC(=[N+](c4ccc(N(c5c(C)cc(OC)cc5C)c5c(C)cc(OC)cc5C)cc4)c4ccc(N(c5c(C)cc(OC)cc5C)c5c(C)cc(OC)cc5C)cc4)C=C3)c3ccc(N(c4c(C)cc(OC)cc4C)c4c(C)cc(OC)cc4C)cc3)cc2)c2c(C)cc(OC)cc2C)c(C)c1.[O-][Cl+3]([O-])([O-])[O-].[O-][Cl+3]([O-])([O-])[O-] [A-22] | 1308 nm | A (Amax was 1,150 nm or more) | A (1 g or more of the compound was stably dissolved in 300 g of MEK) | A (absorbance reduction rate of Amax was less than 5%) | –
C1=CC(=[N+](c2ccc(N(c3ccccc3)c3ccccc3)cc2)c2ccc(N(c3ccccc3)c3ccccc3)cc2)C=CC1=[N+](c1ccc(N(c2ccccc2)c2ccccc2)cc1)c1ccc(N(c2ccccc2)c2ccccc2)cc1 [Comparative compound 1, reference compound] | 1230 nm | A (Amax was 1,150 nm or more) | B (1 g was not dissolved in 300 g of MEK) | X | inferior
Cc1cc(C)c(N(c2ccc([N+](=C3C=CC(=[N+](c4ccc(N(c5c(C)cc(C)cc5C)c5c(C)cc(C)cc5C)cc4)c4ccc(N(c5c(C)cc(C)cc5C)c5c(C)cc(C)cc5C)cc4)C=C3)c3ccc(N(c4c(C)cc(C)cc4C)c4c(C)cc(C)cc4C)cc3)cc2)c2c(C)cc(C)cc2C)c(C)c1 [A-3] | – | A (Amax was 1,150 nm or more) | A (1 g or more of the compound was stably dissolved in 300 g of MEK) | A (absorbance reduction rate of Amax was less than 5%) | –
Cc1ccc(N(c2ccc(C)cc2)c2ccc([N+](=C3C=CC(=[N+](c4ccc(N(c5ccc(C)cc5)c5ccc(C)cc5)cc4)c4ccc(N(c5ccc(C)cc5)c5ccc(C)cc5)cc4)C=C3)c3ccc(N(c4ccc(C)cc4)c4ccc(C)cc4)cc3)cc2)cc1 [A-35] | – | A (Amax was 1,150 nm or more) | A (1 g or more of the compound was stably dissolved in 300 g of MEK) | A (absorbance reduction rate of Amax was less than 5%) | –
COC(=O)c1cccc(N(c2ccc([N+](=C3C=CC(=[N+](c4ccc(N(c5cccc(C(=O)OC)c5)c5cccc(C(=O)OC)c5)cc4)c4ccc(N(c5cccc(C(=O)OC)c5)c5cccc(C(=O)OC)c5)cc4)C=C3)c3ccc(N(c4cccc(C(=O)OC)c4)c4cccc(C(=O)OC)c4)cc3)cc2)c2cccc(C(=O)OC)c2)c1.[O-][Cl+3]([O-])([O-])[O-].[O-][Cl+3]([O-])([O-])[O-] [A-26] | 1232 nm | A (Amax was 1,150 nm or more) | A (1 g or more of the compound was stably dissolved in 300 g of MEK) | A (absorbance reduction rate of Amax was less than 5%) | –
N#Cc1ccc(N(c2ccc(C#N)cc2)c2ccc([N+](=C3C=CC(=[N+](c4ccc(N(c5ccc(C#N)cc5)c5ccc(C#N)cc5)cc4)c4ccc(N(c5ccc(C#N)cc5)c5ccc(C#N)cc5)cc4)C=C3)c3ccc(N(c4ccc(C#N)cc4)c4ccc(C#N)cc4)cc3)cc2)cc1.[O-][Cl+3]([O-])([O-])[O-].[O-][Cl+3]([O-])([O-])[O-] [A-9] | 1170 nm | A (Amax was 1,150 nm or more) | A (1 g or more of the compound was stably dissolved in 300 g of MEK) | A (absorbance reduction rate of Amax was less than 5%) | –
